Laboratory results: US20250376498A1, “FUSION PROTEINS COMPRISING AN IMPROVED GLP-1 RECEPTOR AGONIST AND USES THEREOF” (Guangzhou Innogen Pharmaceutical Group Co., Ltd., priority 2022, published 2025)
Entries after “also recorded” stand apart in the source; their conditions may differ.

Key:
SH-SY5Y neuronal cells [1] = experiment: TNF-α-induced damage in SH-SY5Y cells (Hoechst 33342 live cell staining); type: cell-based; conditions: 60 ng/ml TNF-α, 48 hours; YN-011 10, 100, 500 nM; GABA 1, 10, 100 μM; combination 100 μM GABA + 100 nM YN-011
Description: Digest the SH-SY5Y neuronal cells in a 10 cm culture dish using 0.25% trypsin to prepare a single-cell suspension. Seed the single-cell suspension into a 24-well plate. Place the culture plate in a CO2 incubator and pre-culture overnight at 37° C. with 5% CO2 to allow the cells to adhere. Treat the cells in each well with 20, 40, 60, or 80 ng/ml TNF-α using medium containing 5% FBS at 37° C. for 48 hours. Each drug treatment is performed in three replicate wells. Add the fluorescent dye Hoechst 33342 (Beyotime) at a dilution of 1:1000 to the wells, and incubate the plate at 37° C. for 10 minutes. Remove the culture medium, gently wash twice with PBS, and immediately take the plate to a fluorescence microscope for imaging (20× magnification). Capture 10 fields of view for each cell well and count the number of blue-stained positive cells in each field of view.
Please refer to section 8.7 for the experimental procedure, but the drug treatment in this experiment is different from that in section 8.7. In this experiment, the drug treatment is as follows: using medium containing 5% FBS, treat the cells in each well with 60 ng/ml TNF-α alone or co-treated with 10, 100, or 500 nM YN-011 at 37° C. for 48 hours. Each drug treatment is performed in three replicate wells. […]

SH-SY5Y neuronal cells [2] = experiment: Apoptosis in TNF-α-induced SH-SY5Y cells (Annexin V-FITC/PI flow cytometry); type: cell-based; conditions: 60 ng/ml TNF-α, 48 hours; YN-011 10, 100, 500 nM; GABA 1, 10, 100 μM; combination 100 μM GABA + 100 nM YN-011
Description: Digest the SH-SY5Y neuronal cells in a 10 cm culture dish using 0.25% trypsin to prepare a single-cell suspension. Seed the single-cell suspension into a 12-well plate. Place the culture plate in a CO2 incubator and pre-culture overnight at 37° C. with 5% CO2 to allow the cells to adhere. Using medium containing 5% FBS, treat the cells in each well with 60 ng/ml TNF-α alone or co-treated with 10, 100, or 500 nM YN-011 at 37° C. for 48 hours. Each drug treatment is performed in three replicate wells. Collect the cells and digest the cells with 0.25% trypsin without EDTA for 1 minute. Transfer the cell suspension to a 1.5 ml EP tube, centrifuge at 1000 rpm for 5 minutes, and pellet the cells at the bottom of the tube. Resuspend […] in 100 μl Binding Buffer, add 5 μl of PI and 5 μl of Annexin V-FITC solution, and incubate at room temperature in the dark for 15 minutes. Add 400 μl of Binding Buffer to each tube, and detect using a flow cytometer (Annexin V-FITC excitation wavelength: 488 nm, emission wavelength:
520 nm; PI excitation wavelength: 535 nm, emission wavelength: 617 nm). Count the number of Annexin V-FITC positive cells and PI negative cells in each sample.
Please refer to section 8.14 for the experimental procedure, but the drug treatment in this experiment is different from that in section 8.14. […]

NCCCC(=O)O [GABA, γ-aminobutyric acid]
TNF-α-induced damage in neuronal cells (Hoechst 33342 positive cells) (SH-SY5Y neuronal cells [1]): protective effect | apoptosis in TNF-α-induced neuronal cells (Annexin V-FITC positive, PI negative cells) (SH-SY5Y neuronal cells [2]): reduces apoptosis; also recorded: reduction of apoptosis

B1: YN-011: GLP-1 fusion protein of SEQ ID NO: 7: GLP-1 (A8G, G22E, R36G), linker peptide and IgG2/Fc domain (C222S, A330S, P331S) (protein)
chain: HGEGTFTSDVSSYLEEQAAKEFIAWLVKGGGSSGAPPPSGGGGSERKSCVECPPCPAPPVAGPSVFLFPPKPKDTLMISRTPEVTCVVVDVSHEDPEVQFNWYVDGVEVHNAKTKPREEQFNSTFRVVSVLTVVHQDWLNGKEYKCKVSNKGLPSSIEKTISKTKGQPREPQVYTLPPSREEMTKNQVSLTCLVKGFYPSDIAVEWESNGQPENNYKTTPPMLDSDGSFFLYSKLTVDKSRWQQGNVFSCSVMHEALHNHYTQKSLSLSPG
TNF-α-induced damage in neuronal cells (Hoechst 33342 positive cells) (SH-SY5Y neuronal cells [1]): protective effect | apoptosis in TNF-α-induced neuronal cells (Annexin V-FITC positive, PI negative cells) (SH-SY5Y neuronal cells [2]): significantly reduces apoptosis; also recorded: reduction of apoptosis
